Test results as given in patent US11787850B2, “Peptidic TGF-beta antagonists” (priority 2015, dated 2023).

Tests used:
[1] = test system: TGF-β-induced fibrotic response in human fibroblasts; assay: Immunoblot of fibrotic markers in human primary fibroblasts; type: cell-based; conditions: 100 pM TGF-β, different dosage of P16, 24 hrs (FIG. 34)
Description: Human primary fibroblasts were starved for 36 hours, then treated with 20 pM TGF-β and 10 nM CD109-based peptide as indicated for 24 hours. (FIG. 29A) Cell lysates were separated by gel electrophoresis, transferred to a membrane, and immunoblotted with antibodies against fibronectin, PAI-1, CTGF, and α-tubulin. (FIG. 29B) The data shown represent the mean expression levels of 3 different biological replicates calculated by densitometry of fibronectin, PAI-1, and CTGF intensity levels normalized to α-tubulin. Error bars represent the standard deviation of the replicate experiments. A single asterisk designates a t test P value of less than 0.05, and a double asterisk indicates a P value of less than 0.01.
Human fibroblasts were starved for 36 hours, then treated with 100 pM TGF-β and different dosage of P16 for 24 hrs. (FIG. 34A) Cell lysates were separated by gel electrophoresis, transferred to a membrane, and immunoblotted with antibodies against each of the indicated proteins. (FIG. 34B) Densitometry analysis was subsequently carried out to quantitate the expression of each of the indicated proteins as a function of P16 concentration.

[2] = test system: human keratinocyte HaCat cell migration; assay: Wound closure assay, HaCat keratinocytes; type: cell-based; conditions: 10 nM peptide, 100 pM TGF-β, 24 hours (FIG. 28)
Description: FIGS. 28A and 28B show the results of wound closure assays performed using human keratinocyte HaCat cells. […] (FIG. 28A) Human Keratinocyte HaCat cells were starved for 24 hours, scratched with pipette tips, and then treated with 100 pM TGF-β and 10 nM CD109-based peptides as indicated for 24 hours. Microscopy images were taken at time 0 and 24 hours of treatment. (FIG. 28B) Migration distances were measured using the Image J software platform. Error bars represent mean+/−standard deviation, asterisk designates a P value of <0.05.

[3] = test system: TGF-β1-induced Smad3-driven (CAGA12-lux) transcriptional activity; assay: Luciferase reporter assay in HEK293-(CAGA)12 cells; type: cell-based
[4] = test system: TGF-b induced cellular invasion of squamous cell carcinoma (A431) cells; assay: Matrigel invasion assay, A431 cells; type: cell-based; conditions: 10 nM peptide, 100 pM TGF-b, 24 hrs (FIG. 38)
Description: A431 cancer cells (8000 cells) were seeded on a BioCoat™ Matrigel® Invasion Chamber and treated with 10 nM of P16.2 (negative peptide control), P16 or PA in the absence or presence of 100 pM TGF-b, followed by 24 hrs of incubation. Invasive cells (in the lower chambers) were stained by crystal violet dye, photographed and counted. Representative photos (A) and statistical plots of invasion (B) are shown. The data are shown as mean±SD of the number of invasive cells for three independent experiments. **P<0.01 and ***P<0.001 as compared with controls. […] Squamous cell carcinoma (epidermoid A431 and head and neck FaDu) cells were stimulated with 100 pM of TGF-b1, then treated with 10 nM of peptide 16.2, P16, PA or CD109 for 24 hours. Cells were analysed by Flow cytometry and CD133 positive cell population, which represent cancer stem cell population, were quantified.

[5] = test system: TGF-β-induced epithelial-mesenchymal transition (EMT) response in squamous cell carcinoma (A431) cells; assay: Immunoblot of EMT markers in A431 cells; type: cell-based
Description: (FIG. 26A) Immunoblot analysis was carried out using cell lysates of A431 cells following incubation with TGF-β, P16, or scrambled control (P16.2) as indicated to determine expression of proteins involved in the EMT response. (FIG. 26B) Densitometry analysis was subsequently performed using the developed immunoblot to illustrate the relative expression of each protein as a function as P16 concentration as indicated.
A431 cancer cells treated with 10 nM of P16.2 (negative peptide control), P12, P16 or PA in the absence or presence of 100 pM TGF-b, followed by 24 hrs of incubation. Cells lysates were analyzed by Western blot for the expression of Fibronectin (mesenchymal marker), Snail and Twist (EMT markers). Actin expression was used as loading control.

[6] = test system: bleomycin-induced skin fibrosis; assay: Bleomycin-induced skin fibrosis (scleroderma) mouse model; type: in vivo
Description: Wild type mice were treated with bleomycin ([…]) to induce skin fibrosis or PBS (negative control). Mice were treated with CD109 ([…]), P16 ([…]), or PBS by 100 μL subcutaneous injection every other day for 28 days for a total of 14 injections.
(§1) Mice were injected intradermally with bleomycin (5 mg) in […] PBS or PBS alone every second day for 28 days. Mice were co-injected without or with 1.0 mg recombinant CD109 protein or P16 peptide every second day for 28 days (14 mg total). Skin tissue was harvested and immunohistochemical analysis was performed for the detection of Fibronectin, α-sma, CTGF and Type-1 Collagen. Representative images of sections of skin derived from CD109 and p16 treated mice on day 28 after initial bleomycin or PBS treatment are shown. A total of 4-6 different mice per treatment group were analyzed. Original magnification x 20.
as §1, with “phospho-Smad2, phospho-Smad1” for “Fibronectin, α-sma, CTGF”, “TGF-β levels.” for “Type-1 Collagen.”

[7] = test system: TGF-b-induced phosphorylation of Smad2 in squamous cell carcinoma (A431) cells; assay: Western blot for phospho-Smad2 in A431 cells; type: cell-based; conditions: 10 nM peptide, 100 pM TGF-b, 45 min at 4 C (FIG. 32)
Description: A431 cancer cells treated with 10 nM of P16.2 (negative peptide control), P16 or PA in the absence or presence of 100 pM TGF-b, followed by 45 min of incubation at 4 C. Cells lysates were analyzed by Western blot using an anti-phosphoSmad2 antibody. Actin expression was used as loading control.

[8] = co-injected with bleomycin every second day for 28 days (FIG. 37)

## ETWIWLDTNMGSRIYQ [Peptide P16]
[1]
  TGF-β-induced expression of fibronectin, collagen (COL1A1), PAI-1, α-SMA and CTGF: attenuate
[2]
  suppression of HaCat cell migration: suppress
[3]; 10 nM or 5 nM peptide, 100 pM TGF-β1, 18 hours (FIG. 5)
  inhibition of TGF-β1-induced CAGA12-lux activity: inhibited
[3]; 10 nM peptide, 100 pM TGF-β1, 18 hours (FIG. 6)
  inhibition of TGF-β1-induced CAGA12-lux activity: inhibited
[4]
  inhibition of TGF-b induced cellular invasion: significantly inhibit
[5]; 10 nM peptide, 100 pM TGF-b, 24 hrs (FIG. 33)
  inhibition of TGF-b induced EMT response (Fibronectin, Snail, Twist): inhibit
[5]; immunoblot and densitometry, P16 concentrations as indicated (FIG. 26)
  inhibition of TGF-β-induced EMT response in A431 cells, dose-dependent: inhibit
[6]; [8]
  SMAD1 phosphorylation in skin (immunohistochemistry): enhancing
  SMAD2 phosphorylation in skin (immunohistochemistry): reduces
  TGF-β expression in skin (immunohistochemistry): reduces
[6]; co-injected with bleomycin every second day for 28 days, skin on day 28 (FIG. 36)
  extracellular matrix production (Fibronectin, α-sma, CTGF, Type-1 Collagen, immunohistochemistry): reduces
[6]; subcutaneous injection every other day for 28 days (FIG. 35A)
  collagen content as assessed by trichrome staining: reducing
[6]; subcutaneous injection every other day for 28 days (FIG. 35B)
  dermal collagen content, ratio of trichrome stain to total skin area: reducing
[6]; trichrome staining, subcutaneous injection every other day for 28 days (FIG. 35A)
  dermal thickness: reducing
[7]
  inhibition of TGF-b-induced phosphorylation of Smad2: inhibit
